Experimental data published in ChEMBL document CHEMBL5445981, “Affinity On-target Cellular Literature for EUbOPEN Chemogenomic Library” (2024).
pEC50, pIC50, pKi: −log10 of the molar value. Each block holds one molecule with its values, some of them ahead of it.

Columns and labels:
[1] = molecular target: Cyclin-dependent kinase 7 (Homo sapiens, UniProt P50613); assay: Affinity On-target Cellular interaction: (Radioactive in vitro kinase assays (from cellular wild-type CDK7 immunoprecipitated in HeLa cells)) EUB0001635a CDK7; type: cell-based; design: mode of action Covalent inhibitor, recommended concentration 1 uM
[2] = molecular target: Nucleosome-remodeling factor subunit BPTF (Homo sapiens, UniProt Q12830); assay: Affinity On-target Cellular interaction: (NanoBRET assay (NL-BPTF BD in HEK293 cells)) EUB0000233b BPTF; type: cell-based; design: mode of action Inhibitor, recommended concentration 1 uM
[3] = molecular target: Chromatin remodeling regulator CECR2 (Homo sapiens, UniProt Q9BXF3); assay: Affinity On-target Cellular interaction: (NanoBRET assay (NL-FL […] in HEK293 cells)) EUB0000233b CECR2; type: cell-based; design: mode of action Inhibitor, recommended concentration 1 uM
[4] = molecular target: Cyclin-G-associated kinase (Homo sapiens, UniProt O14976); assay: Affinity On-target Cellular interaction: (NanoBRET assay (HEK293T cells)) EUB0000229b GAK; type: cell-based, HEK-293T; design: mode of action Negative control for SGC-GAK-1, recommended concentration 1 uM
[5] = molecular target: Calcium/calmodulin-dependent protein kinase type 1D (Homo sapiens, UniProt Q8IU85); assay: Affinity On-target Cellular interaction: (NanoBRET assay (in HEK293T cells)) EUB0000878a CAMK1D; type: cell-based, HEK-293T; design: mode of action Inhibitor, recommended concentration 100 nM
[6] = molecular target: Dual specificity tyrosine-phosphorylation-regulated kinase 1A (Homo sapiens, UniProt Q13627); assay: Affinity On-target Cellular interaction: (NanoBRET assay (in HEK293T cells)) EUB0000008b DYRK1A; type: cell-based, HEK-293T; design: mode of action Inhibitor, recommended concentration 1 uM
[7] = molecular target: Dual specificity protein kinase CLK4 (Homo sapiens, UniProt Q9HAZ1); assay: Affinity On-target Cellular interaction: (NanoBRET assay (in HEK293T cells)) EUB0000008b CLK4; type: cell-based, HEK-293T; design: mode of action Inhibitor, recommended concentration 1 uM
[8] = molecular target: Dual specificity tyrosine-phosphorylation-regulated kinase 2 (Homo sapiens, UniProt Q92630); assay: Affinity On-target Cellular interaction: (NanoBRET assay (in HEK293T cells)) EUB0000008b DYRK2; type: cell-based, HEK-293T; design: mode of action Inhibitor, recommended concentration 1 uM
[9] = molecular target: Dual specificity protein kinase CLK2 (Homo sapiens, UniProt P49760); assay: Affinity On-target Cellular interaction: (NanoBRET assay (HEK293T cells)) EUB0001049a CLK2; type: cell-based, HEK-293T; design: mode of action Negative control for SGC-CLK-1 (UNC-CAF-170 ), recommended concentration 1 uM
[10] = molecular target: Dual specificity protein kinase CLK1 (Homo sapiens, UniProt P49759); assay: Affinity On-target Cellular interaction: (NanoBRET assay (HEK293T cells)) EUB0001049a CLK1; type: cell-based, HEK-293T; design: mode of action Negative control for SGC-CLK-1 (UNC-CAF-170 ), recommended concentration 1 uM
[11] = molecular target: Histone-arginine methyltransferase CARM1 (Homo sapiens, UniProt Q86X55); assay: Affinity On-target Cellular interaction: (Western Blot (dimethylation of BAF155, BAF155me2a/BAF155, in HEK293T cells)) EUB0000255b CARM1; type: cell-based, HEK-293T; design: mode of action Negative control for TP-064, recommended concentration 1 uM
SRSF protein kinase 2 = SRSF protein kinase 2 (Homo sapiens, UniProt P78362)
SRSF protein kinase 1 = SRSF protein kinase 1 (Homo sapiens, UniProt Q96SB4)
[12] = molecular target: Histone-lysine N-methyltransferase NSD3 (Homo sapiens, UniProt Q9BZ95); assay: Affinity On-target Cellular interaction: (NanoBRET assay (Nluc-NSD3-PWWP1 fusion protein in U2OS cells)) EUB0000270b NSD3; type: cell-based; design: mode of action Negative control for BI-9321, recommended concentration 1 uM
[13] = molecular target: Serine/threonine-protein kinase 17A (Homo sapiens, UniProt Q9UEE5)
[14] = molecular target: T1, Casein kinase I isoform delta (Homo sapiens, UniProt P48730); assay: Affinity On-target Cellular interaction: (NanoBRET asssay (HEK293T cells)) EUB0001201a CSNK1D; type: cell-based, HEK-293T; design: mode of action Negative control for MU1742, recommended concentration 1 uM
[15] = molecular target: T2, Casein kinase I isoform epsilon (Homo sapiens, UniProt P49674); assay: Affinity On-target Cellular interaction: (NanoBRET asssay (HEK293T cells)) EUB0001201a CSNK1E; type: cell-based, HEK-293T; design: mode of action Negative control for MU1742, recommended concentration 1 uM
[16] = molecular target: Serine/threonine-protein kinase SIK3 (Homo sapiens, UniProt Q9Y2K2); assay: Affinity On-target Cellular interaction: (NanoBRET assay (HEK293T cells)) EUB0001479a SIK3; type: cell-based, HEK-293T; design: mode of action Negative control for MRIA9, recommended concentration 1 uM
[17] = molecular target: Serine/threonine-protein kinase SIK2 (Homo sapiens, UniProt Q9H0K1); assay: Affinity On-target Cellular interaction: (NanoBRET assay (HEK293T cells)) EUB0001479a SIK2; type: cell-based, HEK-293T; design: mode of action Negative control for MRIA9, recommended concentration 1 uM
[18] = molecular target: Serine/threonine-protein kinase SIK1 (Homo sapiens, UniProt P57059); assay: Affinity On-target Cellular interaction: (NanoBRET assay (HEK293T cells)) EUB0001479a SIK1; type: cell-based, HEK-293T; design: mode of action Negative control for MRIA9, recommended concentration 1 uM
[19] = molecular target: Casein kinase I isoform alpha (Homo sapiens, UniProt P48729); assay: Affinity On-target Cellular interaction: (NanoBRET asssay (HEK293T cells)) EUB0001205a CSNK1A1; type: cell-based, HEK-293T; design: mode of action Inhibitor, recommended concentration 1 uM
[20] = molecular target: T2, Casein kinase I isoform epsilon; assay: Affinity On-target Cellular interaction: (NanoBRET asssay (HEK293T cells)) EUB0001205a CSNK1E; type: cell-based, HEK-293T; design: mode of action Inhibitor, recommended concentration 1 uM
[21] = molecular target: T1, Casein kinase I isoform delta; assay: Affinity On-target Cellular interaction: (NanoBRET asssay (HEK293T cells)) EUB0001205a CSNK1D; type: cell-based, HEK-293T; design: mode of action Inhibitor, recommended concentration 1 uM
[22] = molecular target: T3, Inhibitor of nuclear factor kappa-B kinase subunit beta (Homo sapiens, UniProt O14920); assay: Affinity On-target Cellular interaction: (NanoBRET assay (HEK293T cells)) EUB0001576a IKBKB; type: cell-based, HEK-293T; design: mode of action Negative control for BI 605906, recommended concentration 1 uM
[23] = molecular target: T3, Inhibitor of nuclear factor kappa-B kinase subunit beta; assay: Affinity On-target Cellular interaction: (Cellular assay (inhibition of phospho-IKBKB in HeLa cells)) EUB0001492b IKBKB; type: cell-based; design: mode of action Inhibitor, recommended concentration 1 uM
[24] = molecular target: Receptor tyrosine-protein kinase erbB-2 (Homo sapiens, UniProt P04626); assay: Affinity On-target Cellular interaction: (Western Blot (EGF-induced autophosphorylation of the chimera EGFR extracellular domain and erbB2 intracellular domain in NIH 3T3 cells)) EUB0000595a ERBB2; type: cell-based; design: mode of action Inhibitor, recommended concentration 1 uM; conditions: nih3t3
[25] = molecular target: RAC-alpha serine/threonine-protein kinase (Homo sapiens, UniProt P31749); assay: Affinity On-target Cellular interaction: (NanoBRET assay (HEK293T cells)) EUB0001563a AKT1; type: cell-based; design: mode of action Negative control for Borussertib, recommended concentration 1 uM; conditions: hek-293t
[26] = molecular target: RAC-beta serine/threonine-protein kinase (Homo sapiens, UniProt P31751); assay: Affinity On-target Cellular interaction: (NanoBRET assay (HEK293T cells)) EUB0001563a AKT2; type: cell-based; design: mode of action Negative control for Borussertib, recommended concentration 1 uM; conditions: hek-293t
Sequence of RAC-beta serine/threonine-protein kinase (P31751 whole entry): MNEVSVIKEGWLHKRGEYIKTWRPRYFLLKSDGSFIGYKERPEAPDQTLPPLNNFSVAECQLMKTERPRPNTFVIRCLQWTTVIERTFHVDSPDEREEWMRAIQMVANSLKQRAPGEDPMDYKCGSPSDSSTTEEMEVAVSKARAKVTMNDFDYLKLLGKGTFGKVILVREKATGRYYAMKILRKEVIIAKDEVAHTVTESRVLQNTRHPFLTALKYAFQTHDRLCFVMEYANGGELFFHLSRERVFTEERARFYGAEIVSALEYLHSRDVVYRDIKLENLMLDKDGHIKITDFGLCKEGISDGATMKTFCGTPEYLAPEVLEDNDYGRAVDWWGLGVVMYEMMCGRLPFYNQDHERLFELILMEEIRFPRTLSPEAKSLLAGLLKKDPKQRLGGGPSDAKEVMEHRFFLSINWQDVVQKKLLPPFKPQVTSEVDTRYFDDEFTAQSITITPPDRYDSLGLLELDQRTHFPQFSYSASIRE

T2 sequence (P49674 whole entry, canonical isoform): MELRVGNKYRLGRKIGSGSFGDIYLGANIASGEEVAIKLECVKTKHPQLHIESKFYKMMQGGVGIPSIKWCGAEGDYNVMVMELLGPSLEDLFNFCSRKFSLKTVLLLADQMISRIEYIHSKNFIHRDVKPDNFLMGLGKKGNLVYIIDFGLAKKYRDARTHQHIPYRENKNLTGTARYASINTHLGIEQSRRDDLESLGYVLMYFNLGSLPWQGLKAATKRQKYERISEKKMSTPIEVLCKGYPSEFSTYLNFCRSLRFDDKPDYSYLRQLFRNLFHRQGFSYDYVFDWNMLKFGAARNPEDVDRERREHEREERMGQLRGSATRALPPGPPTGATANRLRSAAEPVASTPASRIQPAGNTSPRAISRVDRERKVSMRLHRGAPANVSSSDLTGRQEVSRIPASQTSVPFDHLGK
T3 sequence (O14920 whole entry): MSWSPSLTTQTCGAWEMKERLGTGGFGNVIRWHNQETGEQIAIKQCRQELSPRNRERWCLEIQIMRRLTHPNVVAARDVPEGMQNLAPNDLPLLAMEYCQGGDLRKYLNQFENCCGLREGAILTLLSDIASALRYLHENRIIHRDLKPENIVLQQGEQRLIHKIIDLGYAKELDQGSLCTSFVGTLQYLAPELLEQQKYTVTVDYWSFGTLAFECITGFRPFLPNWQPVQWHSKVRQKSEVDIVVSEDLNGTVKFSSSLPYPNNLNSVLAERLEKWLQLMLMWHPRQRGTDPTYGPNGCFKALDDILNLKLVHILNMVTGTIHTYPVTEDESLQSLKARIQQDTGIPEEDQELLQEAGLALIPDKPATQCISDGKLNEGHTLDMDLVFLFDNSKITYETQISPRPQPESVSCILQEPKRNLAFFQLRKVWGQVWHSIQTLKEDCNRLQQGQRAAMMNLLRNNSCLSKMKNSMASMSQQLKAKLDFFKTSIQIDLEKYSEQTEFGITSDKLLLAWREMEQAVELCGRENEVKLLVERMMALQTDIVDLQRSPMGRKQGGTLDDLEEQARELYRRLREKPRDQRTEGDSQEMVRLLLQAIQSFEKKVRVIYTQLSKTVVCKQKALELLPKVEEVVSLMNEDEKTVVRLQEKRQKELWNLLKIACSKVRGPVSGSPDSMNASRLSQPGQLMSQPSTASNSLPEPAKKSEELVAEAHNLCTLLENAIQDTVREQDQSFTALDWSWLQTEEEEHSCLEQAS
T1 sequence (P48730 whole entry, canonical isoform): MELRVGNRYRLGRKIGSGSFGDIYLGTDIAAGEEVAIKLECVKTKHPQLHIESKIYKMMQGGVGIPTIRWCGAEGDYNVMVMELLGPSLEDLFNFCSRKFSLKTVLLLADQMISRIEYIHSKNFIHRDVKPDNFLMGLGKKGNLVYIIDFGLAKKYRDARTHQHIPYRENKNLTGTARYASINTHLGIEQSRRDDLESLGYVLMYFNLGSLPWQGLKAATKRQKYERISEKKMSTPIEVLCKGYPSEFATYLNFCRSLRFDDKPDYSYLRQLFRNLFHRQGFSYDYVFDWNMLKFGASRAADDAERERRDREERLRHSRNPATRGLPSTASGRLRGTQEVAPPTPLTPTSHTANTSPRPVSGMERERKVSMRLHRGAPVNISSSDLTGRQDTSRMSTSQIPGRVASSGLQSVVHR
Sequence of SRSF protein kinase 2 (P78362 whole entry): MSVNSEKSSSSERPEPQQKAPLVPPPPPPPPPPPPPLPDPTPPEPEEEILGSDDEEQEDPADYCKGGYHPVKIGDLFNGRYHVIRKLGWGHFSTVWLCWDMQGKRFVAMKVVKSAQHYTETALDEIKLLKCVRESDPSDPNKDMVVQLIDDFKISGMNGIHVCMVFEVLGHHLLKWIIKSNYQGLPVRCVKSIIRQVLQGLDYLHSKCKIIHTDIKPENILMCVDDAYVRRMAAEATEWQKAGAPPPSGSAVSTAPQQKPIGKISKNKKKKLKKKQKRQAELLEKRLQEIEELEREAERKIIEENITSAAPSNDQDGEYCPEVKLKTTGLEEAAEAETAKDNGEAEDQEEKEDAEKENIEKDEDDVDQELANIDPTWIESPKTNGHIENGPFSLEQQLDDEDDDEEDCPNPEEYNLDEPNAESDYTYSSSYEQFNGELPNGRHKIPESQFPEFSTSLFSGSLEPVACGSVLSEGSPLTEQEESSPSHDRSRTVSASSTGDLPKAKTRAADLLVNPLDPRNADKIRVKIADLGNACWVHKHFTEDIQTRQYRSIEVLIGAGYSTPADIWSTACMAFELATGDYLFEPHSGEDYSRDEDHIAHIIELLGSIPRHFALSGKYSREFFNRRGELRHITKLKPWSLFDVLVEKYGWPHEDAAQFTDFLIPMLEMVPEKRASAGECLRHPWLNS
Sequence of Serine/threonine-protein kinase 17A (Q9UEE5 whole entry, canonical isoform): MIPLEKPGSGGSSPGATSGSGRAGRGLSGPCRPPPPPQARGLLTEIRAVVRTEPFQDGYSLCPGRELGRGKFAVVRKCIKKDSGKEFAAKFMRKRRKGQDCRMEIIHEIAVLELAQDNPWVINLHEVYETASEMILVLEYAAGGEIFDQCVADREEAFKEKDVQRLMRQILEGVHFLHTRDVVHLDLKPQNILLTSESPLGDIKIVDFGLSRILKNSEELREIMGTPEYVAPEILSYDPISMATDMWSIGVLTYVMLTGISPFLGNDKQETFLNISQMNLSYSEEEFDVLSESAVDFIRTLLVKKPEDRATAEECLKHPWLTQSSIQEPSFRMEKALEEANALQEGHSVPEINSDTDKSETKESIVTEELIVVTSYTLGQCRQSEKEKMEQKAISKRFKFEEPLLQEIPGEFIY
Sequence of Dual specificity protein kinase CLK2 (P49760 whole entry): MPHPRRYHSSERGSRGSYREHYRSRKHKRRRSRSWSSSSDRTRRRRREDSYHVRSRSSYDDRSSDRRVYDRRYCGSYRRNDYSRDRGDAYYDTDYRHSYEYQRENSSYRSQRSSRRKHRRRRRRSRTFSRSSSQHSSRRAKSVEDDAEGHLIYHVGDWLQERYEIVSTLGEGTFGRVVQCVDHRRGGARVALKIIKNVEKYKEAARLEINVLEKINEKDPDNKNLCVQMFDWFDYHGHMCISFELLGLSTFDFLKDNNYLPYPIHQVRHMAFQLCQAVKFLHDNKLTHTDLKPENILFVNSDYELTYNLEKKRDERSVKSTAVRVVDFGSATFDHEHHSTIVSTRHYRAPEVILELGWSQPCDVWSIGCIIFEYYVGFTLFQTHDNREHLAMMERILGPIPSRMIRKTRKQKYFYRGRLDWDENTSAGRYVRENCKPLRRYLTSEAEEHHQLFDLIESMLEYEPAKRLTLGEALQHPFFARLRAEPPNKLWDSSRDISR
Sequence of Serine/threonine-protein kinase SIK2 (Q9H0K1 whole entry): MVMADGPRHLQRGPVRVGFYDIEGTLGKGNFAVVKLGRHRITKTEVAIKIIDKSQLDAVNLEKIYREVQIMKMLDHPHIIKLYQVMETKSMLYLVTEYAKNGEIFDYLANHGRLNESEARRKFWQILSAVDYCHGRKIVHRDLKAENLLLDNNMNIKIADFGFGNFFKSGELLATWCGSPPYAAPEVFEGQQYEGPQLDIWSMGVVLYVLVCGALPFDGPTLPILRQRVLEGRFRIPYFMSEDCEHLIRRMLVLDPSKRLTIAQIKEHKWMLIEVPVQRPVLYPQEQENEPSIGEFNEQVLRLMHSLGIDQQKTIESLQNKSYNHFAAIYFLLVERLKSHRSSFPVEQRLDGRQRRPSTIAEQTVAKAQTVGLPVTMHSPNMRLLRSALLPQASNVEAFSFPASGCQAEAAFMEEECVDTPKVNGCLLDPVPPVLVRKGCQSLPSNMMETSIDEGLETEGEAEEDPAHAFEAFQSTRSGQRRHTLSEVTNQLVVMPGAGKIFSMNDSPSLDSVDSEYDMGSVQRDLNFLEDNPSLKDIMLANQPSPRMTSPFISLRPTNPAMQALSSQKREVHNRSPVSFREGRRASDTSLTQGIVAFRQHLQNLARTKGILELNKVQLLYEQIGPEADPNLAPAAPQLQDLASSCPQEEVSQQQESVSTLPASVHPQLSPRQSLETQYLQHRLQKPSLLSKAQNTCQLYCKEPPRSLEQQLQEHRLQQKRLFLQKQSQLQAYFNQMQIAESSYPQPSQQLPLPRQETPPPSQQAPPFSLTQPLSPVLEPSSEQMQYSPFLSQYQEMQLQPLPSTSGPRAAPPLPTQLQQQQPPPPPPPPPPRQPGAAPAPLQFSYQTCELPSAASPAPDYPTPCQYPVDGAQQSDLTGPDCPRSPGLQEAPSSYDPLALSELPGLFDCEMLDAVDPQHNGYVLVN
Sequence of Cyclin-dependent kinase 7 (P50613 whole entry): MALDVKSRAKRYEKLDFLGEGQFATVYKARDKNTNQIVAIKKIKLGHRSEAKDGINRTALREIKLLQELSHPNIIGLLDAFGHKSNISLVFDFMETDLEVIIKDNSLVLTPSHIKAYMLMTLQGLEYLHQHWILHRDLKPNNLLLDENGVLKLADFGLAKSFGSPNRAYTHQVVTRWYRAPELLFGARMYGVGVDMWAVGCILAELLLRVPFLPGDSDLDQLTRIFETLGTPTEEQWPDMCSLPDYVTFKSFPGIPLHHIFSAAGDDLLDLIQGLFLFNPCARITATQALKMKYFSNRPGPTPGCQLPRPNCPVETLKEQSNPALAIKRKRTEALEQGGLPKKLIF

pIC50 [1]: 7.20
SMILES: C=CC(=O)Nc1ccc(C(=O)Nc2n[nH]c3c2CN(C(=O)N[C@H](CN(C)C)c2ccccc2)C3(C)C)cc1

pEC50 [2]: 6.64
pEC50 [3]: 6.54
SMILES: CN(C)CCCOc1ccc(-c2cc(NCCCn3cccn3)nc(S(C)(=O)=O)n2)cc1

pIC50 [4]: < 5.30
SMILES: COc1cc(N(C)c2ccnc3ccc(C(F)(F)F)cc23)cc(OC)c1OC

pIC50 [5]: 7.54
SMILES: CC(C)c1cc(Nc2nc(N3CCC[C@H](N)C3)ncc2C(N)=O)cc(C(C)C)n1

pKi [6]: 5.18
pKi [7]: 7.64
pKi [8]: 5.77
SMILES: Cn1cc(-c2ccc3occ(-c4cccc(-c5ccncc5)c4)c3n2)cn1

pIC50 [9]: < 5.00
pIC50 [10]: < 5.00
SMILES: COc1cc(Nc2nc(C)cc(-c3cnn4nc(OC)ccc34)n2)cc(C(F)(F)F)c1

pIC50 [11]: < 5.00
SMILES: COCCN1CCC(c2cc(CN(C)C(=O)c3cccc(Oc4ccccc4)c3)ccn2)CC1

pIC50 (SRSF protein kinase 2): < 4.30
pIC50 (SRSF protein kinase 1): < 4.30
SMILES: CN(c1ncccc1CNc1ccnc(-c2cc3cc(Cl)ccc3[nH]2)n1)S(C)(=O)=O

pIC50 [12]: < 5.00
SMILES: Cc1cc(CN)cc(C)c1-c1ncn(C)c1-c1cncn1C

pIC50 [13]: < 4.35
SMILES: CN1CCN(C(=O)c2ccc3cc2OCCOCCNc2ccn4ncc-3c4n2)CC1

pIC50 [14]: < 4.30
pIC50 [15]: < 4.30
SMILES: CCc1ccc(-c2ncn(CC3(F)CCN(C)CC3)c2-c2ccnc3[nH]ccc23)nc1

pIC50 [16]: 4.85
pIC50 [17]: 4.85
pIC50 [18]: 4.85
SMILES: CN(C)c1ncc2cc(-c3ccc(-c4ncccc4F)cc3Cl)c(=O)n(C[C@H]3OC[C@H](N)CO3)c2n1

pIC50 [19]: 5.46
pIC50 [20]: 6.66
pIC50 [21]: 7.33
SMILES: CN1CCC(F)(Cn2cnc(-c3ccc(F)cn3)c2-c2ccnc3[nH]ccc23)CC1

pIC50 [22]: < 4.70
SMILES: CN(C)C(=O)c1sc2nc(N3CCC(S(C)(=O)=O)CC3)cc(C(F)(F)F)c2c1N [BI-5026]

pEC50 [23]: 6.05
SMILES: CCC(F)(F)c1cc(N2CCC(S(C)(=O)=O)CC2)nc2sc(C(N)=O)c(N)c12 [BI-605906]

pIC50 [24]: 7.49
SMILES: COCC(=O)NC/C=C/c1ccc2ncnc(Nc3ccc(Oc4ccc(C)nc4)c(C)c3)c2c1 [CP-724714]

SMILES: C=CC(=O)Nc1ccc2[nH]c(=O)n(C3CCN(Cc4ccc(-c5ccc6c(c5)NC(=O)CO6)cc4)CC3)c2c1 [RL2578]
pIC50 [25]: 5.72
pIC50 [26]: 5.08
